Measurements published in patent publication US7868135B2, “Compositions of lipopeptide antibiotic derivatives and methods of use thereof” (priority 2003, dated 2011).
Starred links: 1 amine or outer side, 2 acyl side, 3 side chain; linkers in the order of their positions; H or OH if unused. Positions of bridges follow the written chain, without caps; N, C: chain ends. Non-standard residues stand in square brackets, D forms with d. Residues, ends and D or L forms follow the SMILES beside them. ξ: configuration not given here. *: point of attachment. X28 = CCCCCCCC(=O)Nc1cc(NC(=O)CCCCCCC)cc(C(=O)*)c1; Hexadecanesulfonyl = CCCCCCCCCCCCCCCCS(=O)(=O)*; ξAbu(βξ-NH2) = CC(N[*:3])C(N[*:1])C(=O)[*:2]; Phac(3-amino) = O=C(Cc1cccc(N[*:1])c1)[*:2]; ξAsp(βξ-Me) = CC(C(=O)O)C(N)C(=O)O; Palmitoyl = CCCCCCCCCCCCCCCC(=O)*; Tridecanoyl = CCCCCCCCCCCCC(=O)*; X1 = O=C(Cc1ccc(N[*:1])cc1)[*:2]; Myristoyl = CCCCCCCCCCCCCC(=O)*; NHtetradecyl = CCCCCCCCCCCCCCN*; ξAbu(3ξ-NH2) = CC(N)C(N)C(=O)O; Undecanoyl = CCCCCCCCCCC(=O)*; Lauroyl = CCCCCCCCCCCC(=O)*; Decanoyl = CCCCCCCCCC(=O)*; X19 = CCCCCCCCCCS(=O)(=O)*; 3Abz = Nc1cccc(C(=O)O)c1; Pip = O=C(O)[CH]1CCCCN1; ξD = NC(CC(=O)O)C(=O)O; ξPip = O=C(O)C1CCCCN1; CO = O=C([*:1])[*:2]; ξV = CC(C)C(N)C(=O)O; ξP = O=C(O)C1CCCN1

System: Staphylococcus aureus (MSSA)
Settings: 24 h
In short: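 Broth microdilution MIC per NCCLS M7-A6 with doubling serial dilutions, in cation-adjusted Mueller-Hinton broth supplemented with 0.625 mM calcium.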

First: CCCCCCCCCCS(=O)(=O)NCC(=O)NC(CC(=O)O)C(=O)NC1C(=O)N2CCCCC2C(=O)NC(C(C)C(=O)O)C(=O)NC(CC(=O)O)C(=O)NCC(=O)NC(CC(=O)O)C(=O)NCC(=O)NC(C(C)N)C(=O)NC(C(C)C)C(=O)N2CCCC2C(=O)NC1C (stereo not drawn) [Compound 269, CH3—(CH2)9—SO2-Gly-Amphomycin] (X19-GD[ξAbu(βξ-NH2)][Pip][ξAsp(βξ-Me)]DGDG[ξAbu(3ξ-NH2)]VP; lactam 3-C; configuration not given here)
Second: CCCCCCCCCCCNC(=O)NCCC(=O)NC(CC(=O)O)C(=O)NC1C(=O)N2CCCCC2C(=O)NC(C(C)C(=O)O)C(=O)NC(CC(=O)O)C(=O)NCC(=O)NC(CC(=O)O)C(=O)NCC(=O)NC(C(C)N)C(=O)NC(C(C)C)C(=O)N2CCCC2C(=O)NC1C (stereo not drawn) [Compound 286, CH3—(CH2)10—NH—C(═O)-(β-Ala)-Amphomycin]
The MIC of the first is higher: 4 to 8 µg/mL for the first, 2 µg/mL for the second.

Compared with `CCCCCCCCCCCCCCCCS(=O)(=O)N[C@@H](Cc1ccccc1)C(=O)NC(CC(=O)O)C(=O)NC1C(=O)N2CCCCC2C(=O)NC(C(C)C(=O)O)C(=O)NC(CC(=O)O)C(=O)NCC(=O)NC(CC(=O)O)C(=O)NCC(=O)NC(C(C)N)C(=O)NC(C(C)C)C(=O)N2CCCC2C(=O)NC1C` (stereo partly drawn) [Compound 270, CH3—(CH2)15—SO2-Phe-Amphomycin] (Hexadecanesulfonyl-F[ξD][ξAbu(βξ-NH2)][ξPip][ξAsp(βξ-Me)][ξD]G[ξD]G[ξAbu(3ξ-NH2)][ξV][ξP]; lactam 3-C), `CCCCCCCCCCCCCCCC(=O)Nc1ccc(CC(=O)NC(CC(=O)O)C(=O)NC2C(=O)N3CCCCC3C(=O)NC(C(C)C(=O)O)C(=O)NC(CC(=O)O)C(=O)NCC(=O)NC(CC(=O)O)C(=O)NCC(=O)NC(C(C)N)C(=O)NC(C(C)C)C(=O)N3CCCC3C(=O)NC2C)cc1` (stereo not drawn) [Compound 281, C16-(p-Apa)-Amphomycin] (Palmitoyl-[X1]D[ξAbu(βξ-NH2)][Pip][ξAsp(βξ-Me)]DGDG[ξAbu(3ξ-NH2)]VP; lactam 3-C; configuration not given here) is lower in MIC: 16 to 32 µg/mL for the first, 2 µg/mL for the second.

`CCCCCCCCCCCCCCNC(=O)NC(CC(=O)O)C(=O)NC1C(=O)N2CCCCC2C(=O)NC(C(C)C(=O)O)C(=O)NC(CC(=O)O)C(=O)NCC(=O)NC(CC(=O)O)C(=O)NCC(=O)NC(C(C)NC(=O)CNC(=O)[C@@H](N)CCCCN)C(=O)NC(C(C)C)C(=O)N2CCCC2C(=O)NC1C` (stereo partly shown) [Compound 277, CH3—(CH2)13—NH—C(═O)-Amphomycin-9-Gly-Lys] and `CCCCCCCCCCCCCCNC(=O)NC(CC(=O)O)C(=O)NC1C(=O)N2CCCCC2C(=O)NC(C(C)C(=O)O)C(=O)NC(CC(=O)O)C(=O)NCC(=O)NC(CC(=O)O)C(=O)NCC(=O)NC(C(C)NC(=O)CN)C(=O)NC(C(C)C)C(=O)N2CCCC2C(=O)NC1C` (stereo not shown) [Compound 279, CH3—(CH2)13—NH—C(═O)-Amphomycin-9-Gly] cannot be ordered by MIC: 0.5 to 1 µg/mL for the first, 0.5 µg/mL for the second.

Compared with `CCCCCCCC(=O)Nc1ccc(C(=O)NC(CC(=O)O)C(=O)NC2C(=O)N3CCCCC3C(=O)NC(C(C)C(=O)O)C(=O)NC(CC(=O)O)C(=O)NCC(=O)NC(CC(=O)O)C(=O)NCC(=O)NC(C(C)N)C(=O)NC(C(C)C)C(=O)N3CCCC3C(=O)NC2C)cc1` (stereo not shown) [Compound 282, C8-PABA-Amphomycin], `CCCCCCCCCC(=O)Nc1ccc(C(=O)NC(CC(=O)O)C(=O)NC2C(=O)N3CCCCC3C(=O)NC(C(C)C(=O)O)C(=O)NC(CC(=O)O)C(=O)NCC(=O)NC(CC(=O)O)C(=O)NCC(=O)NC(C(C)N)C(=O)NC(C(C)C)C(=O)N3CCCC3C(=O)NC2C)cc1` (stereo not shown) [Compound 283, C10-PABA-Amphomycin] is 16-fold lower in MIC: 32 µg/mL for the first, 2 µg/mL for the second.

First: CCCCCCCCCCC(=O)Nc1ccc(C(=O)NC(CC(=O)O)C(=O)NC2C(=O)N3CCCCC3C(=O)NC(C(C)C(=O)O)C(=O)NC(CC(=O)O)C(=O)NCC(=O)NC(CC(=O)O)C(=O)NCC(=O)NC(C(C)N)C(=O)NC(C(C)C)C(=O)N3CCCC3C(=O)NC2C)cc1 (stereo not shown) [Compound 284, C11-PABA-Amphomycin]
Second: CCCCCCCCCCCCC(=O)Nc1ccc(C(=O)NC(CC(=O)O)C(=O)NC2C(=O)N3CCCCC3C(=O)NC(C(C)C(=O)O)C(=O)NC(CC(=O)O)C(=O)NCC(=O)NC(CC(=O)O)C(=O)NCC(=O)NC(C(C)N)C(=O)NC(C(C)C)C(=O)N3CCCC3C(=O)NC2C)cc1 (stereo not shown) [Compound 285, C13-PABA-Amphomycin]
The MIC of the first is 64-fold higher: 16 µg/mL for the first, 0.25 µg/mL for the second.

First: CCCCCCCCCCCCCCNC(=O)NCCCC(=O)NC(CC(=O)O)C(=O)NC1C(=O)N2CCCCC2C(=O)NC(C(C)C(=O)O)C(=O)NC(CC(=O)O)C(=O)NCC(=O)NC(CC(=O)O)C(=O)NCC(=O)NC(C(C)N)C(=O)NC(C(C)C)C(=O)N2CCCC2C(=O)NC1C (stereo not shown) [Compound 291, CH3—(CH2)13—NH—C(═O)-(GABA)-Amphomycin]
Second: CCCCCCCCCCCCCCNC(=O)NCCC(=O)NC(CC(=O)O)C(=O)NC1C(=O)N2CCCCC2C(=O)NC(C(C)C(=O)O)C(=O)NC(CC(=O)O)C(=O)NCC(=O)NC(CC(=O)O)C(=O)NCC(=O)NC(C(C)N)C(=O)NC(C(C)C)C(=O)N2CCCC2C(=O)NC1C (stereo not drawn) [Compound 295, CH3—(CH2)13—NH—C(═O)-(β-Ala)-Amphomycin]
The MIC of the first is 4-fold higher: 2 µg/mL for the first, 0.5 µg/mL for the second.

Going from `CCCCCCCCCC(=O)Nc1cccc(C(=O)NC(CC(=O)O)C(=O)NC2C(=O)N3CCCCC3C(=O)NC(C(C)C(=O)O)C(=O)NC(CC(=O)O)C(=O)NCC(=O)NC(CC(=O)O)C(=O)NCC(=O)NC(C(C)N)C(=O)NC(C(C)C)C(=O)N3CCCC3C(=O)NC2C)c1` (stereo not drawn) [Compound 293, C10-(M-Aminobenzoyl)-Amphomycin] ({Decanoyl-3Abz}-D[ξAbu(βξ-NH2)][Pip][ξAsp(βξ-Me)]DGDG[ξAbu(3ξ-NH2)]VP; lactam 2-C; configuration not given here) to `CCCCCCCCCCC(=O)Nc1cccc(C(=O)NC(CC(=O)O)C(=O)NC2C(=O)N3CCCCC3C(=O)NC(C(C)C(=O)O)C(=O)NC(CC(=O)O)C(=O)NCC(=O)NC(CC(=O)O)C(=O)NCC(=O)NC(C(C)N)C(=O)NC(C(C)C)C(=O)N3CCCC3C(=O)NC2C)c1` (stereo not drawn) [Compound 294, C11-(M-Aminobenzoyl)-Amphomycin] ({Undecanoyl-3Abz}-D[ξAbu(βξ-NH2)][Pip][ξAsp(βξ-Me)]DGDG[ξAbu(3ξ-NH2)]VP; lactam 2-C; configuration not given here), the MIC falls from 2 µg/mL to 0.5 µg/mL (4-fold).

`CCCCCCCCCCCC(=O)Nc1cccc(C(=O)NC(CC(=O)O)C(=O)NC2C(=O)N3CCCCC3C(=O)NC(C(C)C(=O)O)C(=O)NC(CC(=O)O)C(=O)NCC(=O)NC(CC(=O)O)C(=O)NCC(=O)NC(C(C)N)C(=O)NC(C(C)C)C(=O)N3CCCC3C(=O)NC2C)c1` (stereo not drawn) [Compound 296, C12-(M-Aminobenzoyl)-Amphomycin] ({Lauroyl-3Abz}-D[ξAbu(βξ-NH2)][Pip][ξAsp(βξ-Me)]DGDG[ξAbu(3ξ-NH2)]VP; lactam 2-C; configuration not given here) and `CCCCCCCCCCCCC(=O)Nc1cccc(C(=O)NC(CC(=O)O)C(=O)NC2C(=O)N3CCCCC3C(=O)NC(C(C)C(=O)O)C(=O)NC(CC(=O)O)C(=O)NCC(=O)NC(CC(=O)O)C(=O)NCC(=O)NC(C(C)N)C(=O)NC(C(C)C)C(=O)N3CCCC3C(=O)NC2C)c1` (stereo not drawn) [Compound 297, C13-(M-Aminobenzoyl)-Amphomycin] ({Tridecanoyl-3Abz}-D[ξAbu(βξ-NH2)][Pip][ξAsp(βξ-Me)]DGDG[ξAbu(3ξ-NH2)]VP; lactam 2-C; configuration not given here) are the same in MIC: 0.25 µg/mL for the first, 0.25 µg/mL for the second.

Going from `CCCCCCCCCCCCC(=O)Nc1ccc(CC(=O)NC(CC(=O)O)C(=O)NC2C(=O)N3CCCCC3C(=O)NC(C(C)C(=O)O)C(=O)NC(CC(=O)O)C(=O)NCC(=O)NC(CC(=O)O)C(=O)NCC(=O)NC(C(C)N)C(=O)NC(C(C)C)C(=O)N3CCCC3C(=O)NC2C)cc1` (stereo not drawn) [Compound 300, C13-(p-Apa)-Amphomycin] (Tridecanoyl-[X1]D[ξAbu(βξ-NH2)][Pip][ξAsp(βξ-Me)]DGDG[ξAbu(3ξ-NH2)]VP; lactam 3-C; configuration not given here) to `CCCCCCCCCCCCCC(=O)Nc1ccc(CC(=O)NC(CC(=O)O)C(=O)NC2C(=O)N3CCCCC3C(=O)NC(C(C)C(=O)O)C(=O)NC(CC(=O)O)C(=O)NCC(=O)NC(CC(=O)O)C(=O)NCC(=O)NC(C(C)N)C(=O)NC(C(C)C)C(=O)N3CCCC3C(=O)NC2C)cc1` (stereo not drawn) [Compound 301, C14-(p-Apa)-Amphomycin] (Myristoyl-[X1]D[ξAbu(βξ-NH2)][Pip][ξAsp(βξ-Me)]DGDG[ξAbu(3ξ-NH2)]VP; lactam 3-C; configuration not given here), the MIC rises from 0.225 µg/mL to 2 µg/mL (8.9-fold).

`CCCCCCCCCCCCCC(=O)Nc1cccc(CC(=O)NC(CC(=O)O)C(=O)NC2C(=O)N3CCCCC3C(=O)NC(C(C)C(=O)O)C(=O)NC(CC(=O)O)C(=O)NCC(=O)NC(CC(=O)O)C(=O)NCC(=O)NC(C(C)N)C(=O)NC(C(C)C)C(=O)N3CCCC3C(=O)NC2C)c1` (stereo not drawn) [Compound 303, C14-(M-Apa)-Amphomycin] (Myristoyl-[Phac(3-amino)]D[ξAbu(βξ-NH2)][Pip][ξAsp(βξ-Me)]DGDG[ξAbu(3ξ-NH2)]VP; lactam 3-C; configuration not given here) and `CCCCCCCCCCCCCCNC(=O)NCC(=O)NC(CC(=O)O)C(=O)NC1C(=O)N2CCCCC2C(=O)NC(C(C)C(=O)O)C(=O)NC(CC(=O)O)C(=O)NCC(=O)NC(CC(=O)O)C(=O)NCC(=O)NC(C(C)N)C(=O)NC(C(C)C)C(=O)N2CCCC2C(=O)NC1C` (stereo not drawn) [Compound 307, CH3—(CH2)13—NH—C(═O)-Gly-Amphomycin] ({NHtetradecyl-CO}-GD[ξAbu(βξ-NH2)][Pip][ξAsp(βξ-Me)]DGDG[ξAbu(3ξ-NH2)]VP; lactam 3-C; configuration not given here) are the same in MIC: 0.5 µg/mL for the first, 0.5 µg/mL for the second.

First: CCCCCCCCCCCNC(=O)NCCCC(=O)NC(CC(=O)O)C(=O)NC1C(=O)N2CCCCC2C(=O)NC(C(C)C(=O)O)C(=O)NC(CC(=O)O)C(=O)NCC(=O)NC(CC(=O)O)C(=O)NCC(=O)NC(C(C)N)C(=O)NC(C(C)C)C(=O)N2CCCC2C(=O)NC1C (stereo not shown) [Compound 304, CH3—(CH2)10—NH—C(═O)-GABA-Amphomycin]
Second: CCCCCCCC(=O)Nc1cc(NC(=O)CCCCCCC)cc(C(=O)NC(CC(=O)O)C(=O)NC2C(=O)N3CCCCC3C(=O)NC(C(C)C(=O)O)C(=O)NC(CC(=O)O)C(=O)NCC(=O)NC(CC(=O)O)C(=O)NCC(=O)NC(C(C)N)C(=O)NC(C(C)C)C(=O)N3CCCC3C(=O)NC2C)c1 (stereo not drawn) [Compound 305, N,N′-di-C8-(M,M-Diaminobenzoyl)-Amphomycin] (X28-D[ξAbu(βξ-NH2)][Pip][ξAsp(βξ-Me)]DGDG[ξAbu(3ξ-NH2)]VP; lactam 2-C; configuration not given here)
The MIC of the first is 4-fold higher: 4 µg/mL for the first, 1 µg/mL for the second.
